Among the data in BindingDB's records for doi:10.1021/jm400639z (Duquesne University, 2013) are IC50 values, retold here.

Data set [1] can be described thus: Inhibition of p-gp overexpressed in human SKOV3/M6-6 isogenic cells after 48 hrs by sulforhodamine B assay.
Data set [2] in a line: Inhibition of beta3 tubulin overexpressed in human HeLa cells after 48 hrs by SRB assay.

pIC50: −log10 of the molar value.

With `COc1ccc(N(C)c2nc(C)nc3c2CC(C)C3)cc1` (stereo not given), the negative logarithm of the IC50 (pIC50) in data set [1] is 7.36; in data set [2] it was 7.62. Turning to `COc1ccc(N(C)c2nc(C)nc3c2CCC3)cc1`, the pIC50 in data set [1] was 7.80; in data set [2], 8.09. Regarding `COc1ccc(/C=C\c2cc(OC)c(OC)c(OC)c2)cc1O` [combretastin A4], the negative logarithm of the IC50 (pIC50) in data set [1] was 8.18.
